Laboratory results from patent publication US20120220581A1, “IMIDAZO[1,2-b]PYRIDAZINE DERIVATIVES AND THEIR USE AS PDE10 INHIBITORS” (Janssen-Cilag, S.A., priority 2009, published 2012).
Like-named read-outs stand apart in the source and are kept apart here.

How the values were obtained:
PDE5A3 = PDE5A3 (Homo sapiens, UniProt O76074); assay: In vitro PDE selectivity assay (SPA), PDE5A3; type: biochemical; conditions: hPDE5A3; read-out: PDE 5A3 (expressed as pIC50) (converted)
Protocol: (§1) Rat recombinant PDE10A (rPDE10A2) was expressed in Sf9 cells using a recombinant rPDE10A baculovirus construct. Cells were harvested after 48 h of infection and the rPDE10A protein was purified by metal chelate chromatography on Ni-sepharose 6FF. Tested compounds were dissolved and diluted in 100% DMSO to a concentration 100 fold of the final concentration in the assay. Compound dilutions (0.4 μl) were added in 384 well plates to 20 μl of incubation buffer (50 mM Tris pH 7.8, 8.3 mM MgCl2, 1.7 mM EGTA). 10 μl of rPDE10A enzyme in incubation buffer was added and the reaction was started by addition of 10 μl substrate to a final concentration of 60 nM cAMP and 0.008 μCi ^3H-cAMP. The reaction was incubated for 60 minutes at room temperature. After incubation, the reaction was stopped with 20 μl of stop solution consisting of 17.8 mg/ml PDE SPA (scintillation proximity assay) beads. After sedimentation of the beads during 30 minutes the radioactivity was measured in a Perkin Elmer Topcount scintillation counter and results were expressed as cpm. For blanc values the enzyme was omitted from the reaction and replaced by incubation buffer. Control values were obtained by addition of a final concentration of 1% DMSO instead of compound. The same assay principle is applied for the measurement of the affinity of the compound for other members of the PDE family with appropriate modifications in incubation buffer, substrate concentration, incubation time and stop solution. An overview of the different protocols is presented in table A. A best fit curve is fitted by a minimum sum of squares method to the plot of % of control value substracted with blanc value versus compound concentration and the half maximal inhibitory concentration (IC50) value is derived from this curve.
(§2) The compounds of the invention are generally selective for PDE10 compared to other PDEs and there are a few that also have affinity for PDE1B1, 4D3 and 5A3.

PDE4D3 = PDE4D3 (Homo sapiens, UniProt Q08499); assay: In vitro PDE selectivity assay (SPA), PDE4D3; type: biochemical; conditions: hPDE4D3; read-out: PDE 4D3 (expressed as pIC50) (converted)
PDE4D3, sequence (Q08499 1-673 isoform Q08499-2): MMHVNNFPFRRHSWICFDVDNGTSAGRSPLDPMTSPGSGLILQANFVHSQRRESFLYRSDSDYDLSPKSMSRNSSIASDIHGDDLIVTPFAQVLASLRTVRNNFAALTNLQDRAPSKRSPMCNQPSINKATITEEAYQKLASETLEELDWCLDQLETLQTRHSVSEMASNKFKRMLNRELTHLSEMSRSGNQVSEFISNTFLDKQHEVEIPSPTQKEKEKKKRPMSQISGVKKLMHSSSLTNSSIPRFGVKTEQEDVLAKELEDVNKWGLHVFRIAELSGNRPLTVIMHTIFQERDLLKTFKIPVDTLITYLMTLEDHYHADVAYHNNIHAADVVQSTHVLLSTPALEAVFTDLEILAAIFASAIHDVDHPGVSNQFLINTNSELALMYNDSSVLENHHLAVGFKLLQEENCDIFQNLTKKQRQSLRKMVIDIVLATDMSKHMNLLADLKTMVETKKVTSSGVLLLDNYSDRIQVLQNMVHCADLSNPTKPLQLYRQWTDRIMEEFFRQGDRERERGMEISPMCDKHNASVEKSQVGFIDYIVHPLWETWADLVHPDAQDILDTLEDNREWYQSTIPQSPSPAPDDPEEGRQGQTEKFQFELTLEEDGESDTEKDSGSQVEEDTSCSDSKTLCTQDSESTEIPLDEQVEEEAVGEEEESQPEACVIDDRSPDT
Protocol: as §1, §2

[1] = target: T1, Rat recombinant PDE10A (rPDE10A2) (Rattus norvegicus, UniProt Q9QYJ6); assay: In vitro assay PDE10A (SPA, 3H-cAMP); type: biochemical
T1 construct: inferred from the Ni metal chelate purification; made in house; host or cells: Sf9 insect cells (baculovirus)
T1 sequence (Q9QYJ6 1-794): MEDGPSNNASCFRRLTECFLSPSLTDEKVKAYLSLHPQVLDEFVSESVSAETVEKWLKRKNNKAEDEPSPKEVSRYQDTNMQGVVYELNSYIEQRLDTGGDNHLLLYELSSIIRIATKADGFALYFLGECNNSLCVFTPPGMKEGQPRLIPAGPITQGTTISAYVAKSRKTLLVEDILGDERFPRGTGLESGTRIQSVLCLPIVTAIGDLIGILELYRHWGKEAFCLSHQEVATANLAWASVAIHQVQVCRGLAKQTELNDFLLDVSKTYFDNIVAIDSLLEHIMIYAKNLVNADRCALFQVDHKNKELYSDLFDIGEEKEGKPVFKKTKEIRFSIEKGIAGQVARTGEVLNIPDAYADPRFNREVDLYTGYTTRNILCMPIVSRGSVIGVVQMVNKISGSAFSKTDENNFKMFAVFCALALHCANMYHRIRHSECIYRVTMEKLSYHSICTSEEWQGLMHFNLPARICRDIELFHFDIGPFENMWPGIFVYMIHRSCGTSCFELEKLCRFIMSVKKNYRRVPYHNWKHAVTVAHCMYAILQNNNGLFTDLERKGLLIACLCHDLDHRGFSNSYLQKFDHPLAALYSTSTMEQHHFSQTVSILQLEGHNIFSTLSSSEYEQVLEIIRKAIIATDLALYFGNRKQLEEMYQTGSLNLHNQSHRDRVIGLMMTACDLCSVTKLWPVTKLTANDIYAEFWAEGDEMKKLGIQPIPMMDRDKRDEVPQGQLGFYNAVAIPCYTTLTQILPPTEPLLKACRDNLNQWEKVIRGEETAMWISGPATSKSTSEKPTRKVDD
How it was run: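 Scintillation proximity read-out (cpm) of 3H-cAMP hydrolysis after 60 min at room temperature, with enzyme-free blanks and 1% DMSO controls. Enzyme was Sf9-expressed, Ni-sepharose-purified rat rPDE10A2; substrate 60 nM cAMP with tracer, buffer Tris pH 7.8 containing MgCl2 and EGTA.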

[2] = target: other members of the PDE family (Homo sapiens, UniProt O00408); assay: In vitro PDE selectivity assay (SPA), other members of the PDE family (protocols in Table A); type: biochemical; conditions: hPDE2A; read-out: PDE 2A (expressed as pIC50) (converted)
other members of the PDE family (Homo sapiens, UniProt O00408), sequence (O00408 whole entry): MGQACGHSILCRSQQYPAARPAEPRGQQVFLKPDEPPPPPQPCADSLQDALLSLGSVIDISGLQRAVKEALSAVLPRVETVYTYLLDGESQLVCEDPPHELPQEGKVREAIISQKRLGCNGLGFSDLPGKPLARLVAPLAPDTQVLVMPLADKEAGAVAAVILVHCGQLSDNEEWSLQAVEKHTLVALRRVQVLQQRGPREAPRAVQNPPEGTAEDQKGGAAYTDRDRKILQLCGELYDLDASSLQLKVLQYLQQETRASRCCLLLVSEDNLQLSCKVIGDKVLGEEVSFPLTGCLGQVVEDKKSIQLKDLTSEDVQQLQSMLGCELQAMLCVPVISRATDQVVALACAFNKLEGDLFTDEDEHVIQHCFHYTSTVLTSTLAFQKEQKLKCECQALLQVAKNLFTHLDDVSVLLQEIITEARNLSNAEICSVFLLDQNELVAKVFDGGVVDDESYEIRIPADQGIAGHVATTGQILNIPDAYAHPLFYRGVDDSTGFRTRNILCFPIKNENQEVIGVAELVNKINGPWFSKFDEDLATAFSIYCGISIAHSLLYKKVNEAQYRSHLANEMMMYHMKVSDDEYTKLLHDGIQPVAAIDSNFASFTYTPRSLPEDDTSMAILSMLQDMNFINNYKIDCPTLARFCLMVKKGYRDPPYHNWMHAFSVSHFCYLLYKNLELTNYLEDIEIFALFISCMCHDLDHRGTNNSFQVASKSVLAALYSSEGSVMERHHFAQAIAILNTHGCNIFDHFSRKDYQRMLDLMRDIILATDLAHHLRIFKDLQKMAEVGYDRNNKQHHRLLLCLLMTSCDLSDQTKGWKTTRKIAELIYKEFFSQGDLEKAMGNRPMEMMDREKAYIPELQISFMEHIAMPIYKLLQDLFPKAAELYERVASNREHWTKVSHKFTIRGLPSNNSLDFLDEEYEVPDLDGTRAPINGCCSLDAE
Protocol: as §1, §2

[3] = target: other members of the PDE family (Homo sapiens, UniProt Q13946); assay: as above; type: biochemical; conditions: hPDE7A1; read-out: PDE 7A (expressed as pIC50) (converted)
other members of the PDE family (Homo sapiens, UniProt Q13946), sequence (Q13946 whole entry): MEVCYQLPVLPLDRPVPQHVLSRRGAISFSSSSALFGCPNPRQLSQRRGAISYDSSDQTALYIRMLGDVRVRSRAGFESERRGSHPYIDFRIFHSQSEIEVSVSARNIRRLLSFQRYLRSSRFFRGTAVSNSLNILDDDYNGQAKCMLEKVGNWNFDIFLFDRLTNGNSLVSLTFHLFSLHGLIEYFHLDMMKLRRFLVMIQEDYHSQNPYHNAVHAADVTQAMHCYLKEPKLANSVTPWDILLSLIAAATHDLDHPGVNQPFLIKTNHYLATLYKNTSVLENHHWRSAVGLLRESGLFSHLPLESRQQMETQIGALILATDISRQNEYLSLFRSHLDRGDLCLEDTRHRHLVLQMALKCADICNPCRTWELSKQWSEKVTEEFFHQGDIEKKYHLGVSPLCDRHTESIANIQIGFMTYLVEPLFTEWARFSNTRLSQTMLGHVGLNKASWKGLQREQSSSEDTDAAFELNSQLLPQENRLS
Protocol: as §1, §2

[4] = target: other members of the PDE family (Homo sapiens, UniProt Q9HCR9); assay: as above; type: biochemical; conditions: hPDE11A4; read-out: PDE 11A4 (expressed as pIC50) (converted)
other members of the PDE family (Homo sapiens, UniProt Q9HCR9), sequence (Q9HCR9 whole entry): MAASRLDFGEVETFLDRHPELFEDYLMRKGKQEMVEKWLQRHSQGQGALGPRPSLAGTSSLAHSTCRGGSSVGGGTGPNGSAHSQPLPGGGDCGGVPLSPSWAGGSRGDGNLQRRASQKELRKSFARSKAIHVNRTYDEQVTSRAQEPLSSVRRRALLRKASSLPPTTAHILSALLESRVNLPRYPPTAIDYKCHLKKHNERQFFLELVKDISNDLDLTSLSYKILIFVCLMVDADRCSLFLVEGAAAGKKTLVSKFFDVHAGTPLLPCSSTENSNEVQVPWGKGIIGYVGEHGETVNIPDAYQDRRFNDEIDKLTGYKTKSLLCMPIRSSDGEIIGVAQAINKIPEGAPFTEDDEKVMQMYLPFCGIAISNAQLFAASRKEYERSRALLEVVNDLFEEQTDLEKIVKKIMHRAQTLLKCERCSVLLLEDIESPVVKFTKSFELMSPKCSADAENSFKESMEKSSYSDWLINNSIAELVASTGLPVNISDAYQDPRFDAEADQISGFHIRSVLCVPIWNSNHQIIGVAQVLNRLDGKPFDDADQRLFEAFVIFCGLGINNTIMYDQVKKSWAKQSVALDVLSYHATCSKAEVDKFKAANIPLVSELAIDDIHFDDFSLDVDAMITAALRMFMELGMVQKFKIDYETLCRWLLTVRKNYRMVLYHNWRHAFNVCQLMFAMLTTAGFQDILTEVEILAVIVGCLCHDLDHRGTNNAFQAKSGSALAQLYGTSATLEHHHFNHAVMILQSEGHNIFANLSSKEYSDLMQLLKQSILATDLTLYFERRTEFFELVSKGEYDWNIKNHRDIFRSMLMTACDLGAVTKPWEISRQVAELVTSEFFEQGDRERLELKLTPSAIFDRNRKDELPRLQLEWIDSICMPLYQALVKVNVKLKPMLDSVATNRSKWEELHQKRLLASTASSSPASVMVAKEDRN
Protocol: as §1, §2

[5] = target: other members of the PDE family (Homo sapiens, UniProt Q14432); assay: as above; type: biochemical; conditions: hPDE3A; read-out: PDE 3A (expressed as pIC50) (converted)
other members of the PDE family (Homo sapiens, UniProt Q14432), sequence (Q14432 whole entry): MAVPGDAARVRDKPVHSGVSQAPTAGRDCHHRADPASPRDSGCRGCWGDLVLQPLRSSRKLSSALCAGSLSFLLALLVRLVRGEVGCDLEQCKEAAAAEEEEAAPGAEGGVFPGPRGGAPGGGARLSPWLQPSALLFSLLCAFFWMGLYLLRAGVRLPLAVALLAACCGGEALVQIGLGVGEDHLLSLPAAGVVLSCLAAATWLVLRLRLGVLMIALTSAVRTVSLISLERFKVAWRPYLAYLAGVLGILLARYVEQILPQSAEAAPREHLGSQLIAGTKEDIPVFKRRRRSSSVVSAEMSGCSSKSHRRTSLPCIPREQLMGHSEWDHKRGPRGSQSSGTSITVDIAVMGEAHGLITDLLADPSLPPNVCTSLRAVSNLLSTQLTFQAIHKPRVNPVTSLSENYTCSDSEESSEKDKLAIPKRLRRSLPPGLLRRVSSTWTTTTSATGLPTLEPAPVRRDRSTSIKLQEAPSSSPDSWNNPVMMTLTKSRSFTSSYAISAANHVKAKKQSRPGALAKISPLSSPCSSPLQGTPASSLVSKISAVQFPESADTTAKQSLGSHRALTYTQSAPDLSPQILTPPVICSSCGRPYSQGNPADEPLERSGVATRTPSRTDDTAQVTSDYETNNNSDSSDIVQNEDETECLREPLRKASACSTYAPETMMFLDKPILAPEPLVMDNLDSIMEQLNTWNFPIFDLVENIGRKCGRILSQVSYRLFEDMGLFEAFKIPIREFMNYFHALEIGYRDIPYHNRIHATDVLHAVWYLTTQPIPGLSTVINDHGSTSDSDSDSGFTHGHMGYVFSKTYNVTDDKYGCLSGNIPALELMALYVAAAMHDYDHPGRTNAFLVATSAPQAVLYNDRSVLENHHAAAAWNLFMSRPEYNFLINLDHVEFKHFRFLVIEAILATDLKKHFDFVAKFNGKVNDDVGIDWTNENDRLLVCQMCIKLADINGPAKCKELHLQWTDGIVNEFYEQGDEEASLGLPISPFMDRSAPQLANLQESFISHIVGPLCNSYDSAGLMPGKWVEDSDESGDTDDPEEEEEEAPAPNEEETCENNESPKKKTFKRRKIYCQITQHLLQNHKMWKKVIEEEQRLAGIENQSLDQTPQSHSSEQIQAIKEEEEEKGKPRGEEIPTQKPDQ
Protocol: as §1, §2

[6] = target: other members of the PDE family (Homo sapiens, UniProt O76083); assay: as above; type: biochemical; conditions: hPDE9A; read-out: PDE 9A (expressed as pIC50) (converted)
other members of the PDE family (Homo sapiens, UniProt O76083), sequence (O76083 whole entry): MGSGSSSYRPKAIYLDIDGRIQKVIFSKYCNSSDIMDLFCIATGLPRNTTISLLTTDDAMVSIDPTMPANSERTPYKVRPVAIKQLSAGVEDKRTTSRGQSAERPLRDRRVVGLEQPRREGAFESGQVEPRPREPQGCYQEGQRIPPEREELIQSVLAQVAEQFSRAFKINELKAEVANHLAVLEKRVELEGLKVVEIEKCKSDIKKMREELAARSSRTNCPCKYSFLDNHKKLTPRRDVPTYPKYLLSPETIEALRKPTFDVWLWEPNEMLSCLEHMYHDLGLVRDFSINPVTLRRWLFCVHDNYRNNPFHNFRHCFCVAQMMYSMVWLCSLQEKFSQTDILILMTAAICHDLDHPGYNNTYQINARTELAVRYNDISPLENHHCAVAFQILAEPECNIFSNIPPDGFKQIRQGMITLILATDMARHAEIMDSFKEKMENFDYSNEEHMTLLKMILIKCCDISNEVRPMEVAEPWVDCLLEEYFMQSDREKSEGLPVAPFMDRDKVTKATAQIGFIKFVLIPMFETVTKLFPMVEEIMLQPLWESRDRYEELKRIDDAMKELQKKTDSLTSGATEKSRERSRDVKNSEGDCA
Protocol: as §1, §2

[7] = test system: apomorphine-induced stereotypy in rats; assay: Apomorphine-induced stereotypy in rats (APO); type: in vivo; conditions: Rattus norvegicus, ≧: active in 30% of the animals at the indicated dose, ≦: active in 60%
Protocol: Apomorphine (1.0 mg/kg, i.v.)-induced stereotypy (compulsive sniffing, licking, chewing) was scored every 5 min over the first hour after injection of apomorphine, following a 1 hour interval pre-treatment with the test compound. The score system was: (3) pronounced, (2) moderate, (1) slight, and (0) absent.

PDE10 = target: T2, PDE10 (Rattus norvegicus, UniProt Q9QYJ6); assay: PDE10 occupancy ([3H]-MP-10, striatum); type: in vivo; conditions: rat, single dose 10 mg/kg
T2 construct: from tissue; host or cells: rat brain sections, striatum (in vivo dosing, ex vivo autoradiography)
T2 sequence (Q9QYJ6 1-794): T1 sequence (Q9QYJ6 1-794)
Protocol: Dose-response or single dose experiments were performed to measure PDE10 occupancy 1 hour after subcutaneous (s.c.) or oral (p.o.) administration. Male Wistar rats (200 g) were treated by s.c. or p.o. administration of various PDE10 inhibitors. The PDE10 radioligand [^3H]-MP-10 (10 μCi/animal) was injected intravenously (i.v.) 30 minutes before sacrifice. Brains were immediately removed from the skull and rapidly frozen. Twenty μm-thick brain sections were cut using a cryostat-microtome, thaw-mounted on microscope slides and loaded in a β-imager to quantify PDE10 occupancy in the striatum.

[8] = Table 4 in vitro selectivity, read-out: PDE 10A2 (expressed as pIC50) (converted)
[9] = pIC50 corresponds to the −log IC50 expressed in mol/L, read-out: PDE10A2 pIC50 (converted)
[10] = dose at which 50% of the tested animals show the effect
[11] = po, * compound not soluble, tested orally as a suspension

| IC50 (PDE5A3) [µM] | IC50 (PDE4D3) [µM] | IC50 [1, 8] [µM] | IC50 [1, 9] [µM] | IC50 [2] [µM] | IC50 [3] [µM] | IC50 [4] [µM] | IC50 [5] [µM] | IC50 [6] [µM] | receptor occupancy at 10 mg/kg (PDE10; sc, subcutaneous, read-out: SD sc % occupancy at 10 mg/kg) [%] | receptor occupancy at 10 mg/kg (PDE10; oral, read-out: SD po % occupancy at 10 mg/kg) [%] | Compound | ED50 [7, 10] [mg/kg] | ED50 [7, 11] [mg/kg] |
| --- | --- | --- | --- | --- | --- | --- | --- | --- | --- | --- | --- | --- | --- |
| 1.29 | 1.26 | 0.0115 | 0.0115 | 6.61 | > 10 | 1.41 | > 10 | > 10 |  |  | COCCc1ccc(-c2c(C3CC3)nc3c(-c4ccncc4)ccnn23)cn1 [compound 10, 2-cyclopropyl-3-[6-(2-methoxyethyl)-3-pyridinyl]-8-(4-pyridinyl)-imidazo[1,2-b]pyridazine] | 1.2 |  |
|  | > 10 | 0.17 | 0.17 | > 10 | > 10 | > 10 | > 10 | > 10 | 46 |  | COC(C)(C)COc1ccc(-c2c(C)nc3c(N4CCOCC4)ccnn23)cn1 [compound 18, 3-[6-(2-methoxy-2-methylpropoxy)-3-pyridinyl]-2-methyl-8-(4-morpholinyl)-imidazo[,2-b]pyridazine] | 5 |  |
| 4.47 | > 10 | 0.0437 | 0.0437 | 1.2 | > 10 | > 10 | > 10 | > 10 |  |  | COC(C)(C)CCc1ccc(-c2c(C)nc3c(N4CCOCC4)ccnn23)cn1 [compound 29, 3-[6-(3-methoxy-3-methylbutyl)-3-pyridinyl]-2-methyl-8-(4-morpholinyl)-imidazo[1,2-b]pyridazine] | ≥ 2.5 |  |
| > 10 | > 10 | 0.0776 | 0.0776 | > 10 | > 10 | > 10 | > 10 | > 10 |  |  | Cc1nc2c(N3CCOCC3)ccnn2c1-c1ccc(C(C)C)nc1 [compound 32, 2-methyl-3-[6-(1-methylethyl)-3-pyridinyl]-8-(4-morpholinyl)-imidazo[1,2-b]pyridazine] | 5 |  |
| > 10 | > 10 | 0.0776 | 0.0776 | > 10 | > 10 | > 10 | > 10 | > 10 |  |  | Cc1nc2c(N3CCOCC3)ccnn2c1-c1ccc(C2CC2)nc1 [compound 33, 3-(6-cyclopropyl-3-pyridinyl)-2-methyl-8-(4-morpholinyl)-imidazo[1,2-b]pyridazine] |  | ≥ 2.5 |
| 8.51 | > 10 | 0.0468 | 0.0468 | > 10 | > 10 | > 10 | > 10 | > 10 |  |  | Cc1nc2c(N3CCOCC3)ccnn2c1-c1ccnc(N2CCOCC2)c1 [compound 91, 2-methyl-8-(4-morpholinyl)-3-[2-(4-morpholinyl)-4-pyridinyl]-imidazo[1,2-b]pyridazine] | 1.2 |  |
| > 10 | > 10 | 0.0977 | 0.0977 | > 10 | > 10 |  | > 10 | > 10 |  |  | Cc1nc2c(N3CCOCC3)ccnn2c1-c1cnn(C2CCOCC2)c1 [compound 117, 2-methyl-8-(4-morpholinyl)-3-[1-(tetrahydro-2H-pyran-4-yl)-1H-pyrazol-4-yl]-imidazo[1,2-b]pyridazine] |  |  |
|  | > 10 | 0.0501 | 0.0501 | > 10 | > 10 | > 10 | > 10 | > 10 |  | 4 | Cc1nc2c(N3CCOCC3)ccnn2c1-c1cnn(CC2CC2(F)F)c1 (centres unmarked) [compound 118] |  | ≤ 10 |
| 2.4 | > 10 | 0.0955 | 0.0955 | > 10 | > 10 | > 10 | > 10 | > 10 |  |  | COCCn1cc(-c2c(C)nc3c(N4CCOCC4)cc(C)nn23)cn1 [compound 133, 3-[1-(2-methoxyethyl)-1H-pyrazol-4-yl]-2,6-dimethyl-8-(4-morpholinyl)-imidazo[1,2-b]pyridazine] | 3.1 |  |
| 0.589 | 5.5 | 0.105 | 0.105 | 8.13 | 4.9 | 5.37 | > 10 | > 10 |  |  | COCCn1cc(-c2c(C)nc3c(-c4ccncc4)cc(C)nn23)cn1 [compound 134, 3-[1-(2-methoxyethyl)-1H-pyrazol-4-yl]-2,6-dimethyl-8-(4-pyridinyl)-imidazo[1,2-b]pyridazine] | 5 |  |
| 1.91 | > 10 | 0.0525 | 0.0525 | > 10 | 8.51 | > 10 | > 10 | > 10 |  |  | Cc1nc2c(N3CCOCC3)cc(Cl)nn2c1-c1cnn(CC(F)(F)F)c1 [compound 146, 6-chloro-2-methyl-8-(4-morpholinyl)-3-[1-(2,2,2-trifluoroethyl)-1H-pyrazol-4-yl]-imidazo[1,2-b]pyridazine] |  |  |
